From patent US20230022157A1 (Achillion Pharmaceuticals, Inc., priority 2018, published 2023)

biological target: T1, Human Factor D (Homo sapiens, UniProt P00746); experiment: Human Factor D Assay; type: biochemical; details: Human Factor D 80 nM, substrate Z-L-Lys-SBzl, assay of Example 3; read-out: IC50 (Stars)
T1 construct: purified from human serum; purchased Complement Technology, Inc; host or cells: human serum (natural protein, not recombinant)
Procedure, shortened: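 Serum-purified human factor D (80 nM final) preincubated 5 min at room temperature with test compound in 50 mM Tris, 1M NaCl, pH 7.5. Z-L-Lys-SBzl substrate and DTNB then added, each at 100 μM final. IC50 from nonlinear regression of reaction rate against compound concentration.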

T1 sequence (P00746 26-253): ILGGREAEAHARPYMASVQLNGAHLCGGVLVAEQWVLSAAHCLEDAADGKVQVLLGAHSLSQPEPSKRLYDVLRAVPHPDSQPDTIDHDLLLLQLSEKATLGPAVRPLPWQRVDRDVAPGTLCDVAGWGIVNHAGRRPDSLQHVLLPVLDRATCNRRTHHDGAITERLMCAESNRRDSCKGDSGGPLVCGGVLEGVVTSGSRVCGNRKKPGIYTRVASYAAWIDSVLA

IC50, < 1000 nM:
CC(=O)c1nn(CC(=O)N2C[C@H](F)C[C@H]2C(=O)Nc2cccc(Br)n2)c2ccc(-c3ccc(C)c(F)c3)cc12 [Compound 34, (2S,4R)-1-(2-(3-Acetyl-5-(3-fluoro-4-methylphenyl)-1H-indazol-1-yl)acetyl)-N-(6-bromopyridin-2-yl)-4-fluoropyrrolidine-2-carboxamide]

same assay, conditions: Human Factor D 80 nM, substrate Z-L-Lys-SBzl; Table 2; read-out: IC50 (Stars)

IC50, < 1000 nM:
CC(=O)c1nn(CC(=O)N2C[C@H]3C[C@H]3[C@H]2C(=O)Nc2nc(Br)ccc2Cl)c2c(C)cc(-c3cnc(CO)nc3)cc12 [Compound 75, (1R,2S,5S)-3-(2-(3-acetyl-5-(2-(hydroxymethyl)pyrimidin-5-yl)-7-methyl-11H-indazol-1-yl)acetyl)-N-(6-bromo-3-chloropyridin-2-yl)-3-azabicyclo[3.1.0]hexane-2-carboxamide]
CC(=O)c1nn(CC(=O)N2C[C@H]3C[C@H]3[C@H]2C(=O)Nc2nc(Br)ccc2C)c2ccc(-c3cnc(CO)nc3)cc12 [Compound 63, (1R,2S,5S)-3-(2-(3-acetyl-5-(2-(hydroxymethyl)pyrimidin-5-yl)-1H-indazol-1-yl)acetyl)-N-(6-bromo-3-methylpyridin-2-yl)-3-azabicyclo[3.1.0]hexane-2-carboxamide]
CC(=O)c1cn(CC(=O)N2[C@H](C(=O)Nc3nc(C(F)(F)F)ccc3C)C[C@@]3(C)C[C@@H]23)c2c(C)cc(-c3cnc4cc(C5CC5)nn4c3)cc12 [Compound 196, (1R,3S,5R)-2-(2-(3-acetyl-5-(2-cyclopropylpyrazolo[1,5-a]pyrimidin-6-yl)-7-methyl-1H-indol-1-yl)acetyl)-5-methyl-N-(3-methyl-6-(trifluoromethyl)pyridin-2-yl)-2-azabicyclo[3.1.0]hexane-3-carboxamide]
CC(=O)c1cn(CC(=O)N2C[C@H]3C[C@H]3[C@H]2C(=O)Nc2nc(Br)ccc2C)c2c(C)cc(-c3cnc(CO)nc3)cc12 [Compound 79, (1R,2S,5S)-3-(2-(3-acetyl-5-(2-(hydroxymethyl)pyrimidin-5-yl)-7-methyl-11H-indol-1-yl)acetyl)-N-(6-bromo-3-methylpyridin-2-yl)-3-azabicyclo[3.1.0]hexane-2-carboxamide]
CC(=O)c1nn(CC(=O)N2[C@H](C(=O)NCCc3ccn(C)n3)C[C@@]3(C)C[C@@H]23)c2c(C)cc(-c3cnc(C)nc3)cc12 [Compound 103, (1R,3S,5R)-2-{2-[3-acetyl-7-methyl-5-(2-methylpyrimidin-5-yl)indazol-1-yl]acetyl}-5-methyl-N-[2-(1-methylpyrazol-3-yl)ethyl]-2-azabicyclo[3.1.0]hexane-3-carboxamide]
CC(=O)c1nn(CC(=O)N2[C@H](C(=O)NCC3CCc4ccccc4C3)C[C@@]3(C)C[C@@H]23)c2c(C)cc(-c3cnc(C)nc3)cc12 (stereo partly drawn) [Compound 117, (1R,3S,5R)-2-{2-[3-acetyl-7-methyl-5-(2-methylpyrimidin-5-yl)indazol-1-yl]acetyl}-5-methyl-N-(1,2,3,4-tetrahydronaphthalen-2-ylmethyl)-2-azabicyclo[3.1.0]hexane-3-carboxamide]
CC(=O)c1cn(CC(=O)N2[C@H](C(=O)Nc3cc(C)cc(Br)n3)C[C@@]3(C)C[C@@H]23)c2c(C)cc(-c3cnc(C)nc3)cc12 [Compound 193, (1R,3S,5R)-2-(2-(3-acetyl-7-methyl-5-(2-methylpyrimidin-5-yl)-1H-indol-1-yl)acetyl)-N-(6-bromo-4-methylpyridin-2-yl)-5-methyl-2-azabicyclo[3.1.0]hexane-3-carboxamide]
